Measured values as given in patent publication US20030203969A1, “Pharmaceutically active aromatic guanylhydrazones” (priority 2000, published 2003).

What was measured:
[1] = tested on: macrophage-tropic HIV-1Ba-L strain; experiment: Inhibition of macrophage-tropic HIV-1 Ba-L replication in de novo infected PM1 cells (p24 antigen); format: cell-based; conditions: d10
Experimental: HIV replication was measured either by p24 HIV Antigen Capture Assay Kit (ELISA; HIVAG-1 Monoclonal kit BIA011; Abbott) following the manufacturer's recommendation, or by using the Quantiplex HIV-1 RNA 3.0 Assay (bDNA) system (Chiron Diagnostics). The latter assay is a signal amplification nucleic acid probe assay (employing a sandwich nucleic acid hybridization procedure) for direct quantitation of HIV RNA in human plasma. There, in brief, HIV-1 is first concentrated from plasma by centrifugation. After release of genomic HIV-1 RNA from the virions, the RNA is captured to a microwell by a set of specific, synthetic oligonucleotide capture probes. A set of target probes hybridize to both the viral RNA and the pre-amplifier probes. The capture probes, comprised of 17 individual capture extenders, and the target probes, comprised of 81 individual target extenders, bind to different regions of the pol gene of the viral RNA. The amplifier probe hybridizes to the pre-amplifier forming a branched DNA (bDNA) complex. Then, multiple copies of an alkaline phosphatase labeled probe are hybridized to this immobilized bDNA complex. Detection is achieved by incubating the entire complex with a chemoluminescent substrate. Light emission is directly proportional to the amount of HIV-1 RNA present in each sample, and results are recorded as relative light units by an appropriate analyzer.
Jurkat cells (species: human T-cell leukemia; special characteristics: cells are permissive for growth of T-cell tropic HIV strains; source:ATCC Cat.No. TIB 152) or PM1 cells (species: clonal derivative of human HUT 78 cells; special characteristics: cells are permissive for growth of macrophage-tropic and T-cell tropic HIV strains; source: Dr. Marvin Reitz, courtesy of the NIH AIDS Research and Reference Reagent Program Cat.No. 3038) were stimulated with Phytohemagglutinin (PHA-P, Product No. L9132 from Sigma) in a concentration of 2 μg/ml (1.5×10^6 cells/ml) and Hexadimethrine Bromide (Polybrene, Product No. H9268 from Sigma) in a concentration of 2 μg/ml (1.5×10^6 cells/ml) in RPMI 1640 medium containing 10% fetal calf serum (FCS, Pansystems GmbH) and antibiotics for 3 days.
For HIV-1 infection, 5×10^7 cells were resuspended in 500 μl culture medium without test drugs and incubated in a 50 ml blue-cap-tube at 37° C. for 5 hrs with HIV-1 high titer viral stocks. Jurkat cells were infected with the T-cell tropic strain HIV-1 NL4-3, PM1 cells with the macrophage tropic strain HIV-1 Ba-L (both from the NIH AIDS Research and Reference Reagent Program). After infection, cells were washed twice with PBS without Ca^2+ and Mg^2+ to avoid false positive p24 antigen determination. Cells were resuspended, and identical aliquots (1×10^6/ml) of infected cells were further cultured in 10 ml medium with test drugs at various concentrations, or in medium with DMSO as control for calculation of the inhibition of virus replication (in %].
Culture medium was changed and cells were split at days 3 and 7 of the experiments. Viability of the cells (Trypan-blue staining), cell counts and p24 antigen levels were determined at days 3, 7 and 10 of the experiments. No significant differences in cell viability were observed (˜85-90% living cells).
At day 10 of infection, the HIV strains replicated vigorously in untreated cultures. Numbers describe percent inhibition of HIV replication as compared to control experiments.

[2] = tested on: Respiratory Syncytial Virus (Long); format: cell-based
Experimental: (§1) A cytoprotection assay procedure using MTS is employed to evaluate compounds for antiviral activity against Respiratory Syncytial Virus (Long) in Vero (African green monkey, ATCC Cat. No. CCL-81) cells. The cells are pre-grown overnight at 37° C. (2×10^4/well in 96 well tissue culture plates) with 10% fetal Bovine serum containing Minimum Essential Medium. The positive control for the assay is Interferon-Gamma/Ribavirin. The infection medium contains reduced serum levels (2% FBS).
Using half log dilutions with high test starting at 100 μg/ml the drug dilutions are made and added to triplicate cultures in 0.1 ml volume and pre-titrated virus suspension is also added in 0.1 ml volume. Cell control containing medium alone, virus controls containing medium and virus, the drug toxicity controls containing medium and each drug concentrations are run simultaneously with the test samples. […] CPE inhibition is determined by dye uptake procedure (Celltiter-MTS). Celltiter reagent contains a novel tetrazolium (MTS) compound and an electron coupling reagent phenazine ethosulfate (PES). MTS-tetrazolium is bioreduced by cells into a colored formazan product that is soluble in tissue culture medium. This conversion is accomplished by NADPH or NADH produced by dehydrogenase enzymes in metabolically active cells. The amount of soluble formazan produced by cellular reduction of the MTS is measured by the absorbance at 490 nm. The quantity of formazan product as measured by the amount of 490 nm absorbance is directly proportional to the number of living cells in the culture thus allowing the rapid quantitative analysis of the inhibition of virus-induced cell killing by the test substances. […]
The inhibitory drug concentration which reduces the viral replication by 95% (IC95) and the minimum drug concentration which inhibits cell growth by 95% (TC95) are calculated by using a regression analysis program for semilog curve fitting. A therapeutic (selectivity) index (TI) for compound No. 4 is determined by dividing the TC95 by the IC95.

Vero cells = tested on: Vero cells
Experimental: as §1
Using half log dilutions with high test starting at 100 μg/ml the drug dilutions are made and added to triplicate cultures in 0.1 ml volume and pre-titrated virus suspension is also added in 0.1 ml volume. […] CPE inhibition is determined by dye uptake procedure (Celltiter-MTS). […] The amount of soluble formazan produced by cellular reduction of the MTS is measured by the absorbance at 490 nm. The quantity of formazan product as measured by the amount of 490 nm absorbance is directly proportional to the number of living cells in the culture thus allowing the rapid quantitative analysis of the inhibition of virus-induced cell killing by the test substances. […]
The inhibitory drug concentration which reduces the viral replication by 95% (IC95) and the minimum drug concentration which inhibits cell growth by 95% (TC95) are calculated by using a regression analysis program for semilog curve fitting. […]

## CC(=NNC(=N)N)c1cc(NC(=O)CCCCCCCCC(=O)Nc2cc(C(C)=NNC(=N)N)cc(C(C)=NNC(=N)N)c2)cc(C(C)=NNC(=N)N)c1 [Compound 4, N,N′-bis (3,5-diacetylphenyl) decane diamide tetrakis (amidinohydrazone)]
[1]; 0.5 μM
  percent inhibition of HIV replication as compared to control: 82%
[1]; 1.0 μM
  percent inhibition of HIV replication as compared to control: 73%
[2]; RSV, at the IC95/TC95 level
  Comment: Active
[2]; Vero cells newly infected with RSV
  IC50: 1.46 µM
[2]; reduces the viral replication by 95%
  IC95: 2.96 µM
Vero cells
  CC50: 8.68 µM
  TC95: 30.20 µM
